Source: patent US10760052B2, “Method of inhibiting tau phosphorylation” (priority 2012, dated 2020)

Columns and labels:
α7nAChR (Aβ42 binding) = experiment: FITC-Aβ42 binding to biotinylated α7nAChR-containing SK-N-MC cell fragments; parameters: species or system human; conditions: added simultaneously, 30° C., 30 minutes
[1] = test system: tau (pSer202, pThr231, pThr181); experiment: Tau phosphorylation in organotypic frontocortical slice cultures; format: cell-based, rat; conditions: C0105 0.1, 1, 10 nM; C0114 1, 10 nM; simultaneous with Aβ42
Procedure: On the day of study, medium was removed, the brain slices rinsed and incubated in 0.1% FBS-containing medium for 4 hours at 36° C. in 5% CO2.
The levels of phosphorylated tau (pSer202tau, pThr231tau and pThr181tau) as well as total tau precipitated (loading controls) are assessed by Western blotting using specific antibodies directed against each of the phosphoepitopes and the anti-tau, respectively.

FLNA-TLR4 association = experiment: FLNA association with TLR4 in organotypic frontocortical slice cultures; format: cell-based, rat; conditions: 100 nM Aβ42, 16 hours, compound added simultaneously
Procedure: (§1) Tissue was harvested and solubilized, and a specific antibody against FLNA was used to immunoprecipitate FLNA and associated proteins. The FLNA immunoprecipitate was size-fractionated using SDS-PAGE, transferred and probed with specific antibodies directed against each of the following receptors: α7nAChR, TLR4, IR and MOR.
(§2) Rat brain slice organotypic culture methods were modified from those published previously. [Adamchik et al., Brain Res Brain Res Protoc 5:153-158 (2000).] FCX slices ([…]) were transferred to sterile, porous Millicell-CM inserts (0.4 μm). Each culture insert unit contained two brain slices and was placed into individual wells of a 12-well culture tray in 2 ml medium: 50% MEM with Earl's salts, 2 mM L-glutamine, 25% Earl's balanced salt solution, 6.5 g/l D-glucose, 20% fetal bovine serum (FBS), 5% horse serum, 25 mM HEPES buffer, pH 7.2, and […]. […]
(§3) The level of FLNA-associated α7nAChRs was determined using a co-immunoprecipitation/Western blotting method as described previously. […] The levels of FLNA-associated α7nAChR, TLR4, IR and MOR were assessed by Western blotting using specific antibodies directed against the respective proteins and the blot stripped and re-probed for FLNA for immunoprecipitation/loading control.

NMDAR [2] = format: cell-based, rat; conditions: slice cultures, 0.1 μM Aβ42
NMDAR [3] = experiment: Levels of signaling molecules associated with NMDAR (NR1) in slice cultures; format: cell-based, rat; conditions: 0.1 μM Aβ42
Procedure: NMDAR activation and signaling was initiated by incubation of 6 slices with either 0.3 mM Mg^2+ containing KR (LMKR; basal) or LMKR containing 10 μM NMDA and 1 μM glycine at 37° C. for 30 minutes.
Ligand stimulation was terminated by the addition of 1 ml of ice-cold Ca^2+-free K-R containing mixture of protein phosphatase inhibitors, 0.5 mM EGTA and 0.1 mM EDTA. Brain slices were harvested by a brief centrifugation and were homogenized in 0.25 ml of ice-cold immunoprecipitation buffer. The homogenates were centrifuged at 1000×g for 5 minutes (4° C.) and the supernatant (post-mitochondrial fraction) was sonicated for 10 seconds on ice.
The resultant lysates were cleared by centrifugation at 50,000×g for 5 minutes and diluted with 0.75 ml of immunoprecipitation buffer. Protein concentrations were measured by Bradford method (Bio-Rad).
To determine the association of NMDARs with PSD-95, as well as NMDAR signaling, the levels of NMDAR subunits, PSD-95 and NMDAR-associated signaling molecules were measured in anti-NR1 immunoprecipitates. In these studies, brain slice lysates (100 μg) were immunoprecipitated overnight at 4° C. with 2 μg of immobilized anti-NR1 onto covalently conjugated protein A-agarose beads (Pierce-ENDOGEN). […]

α7nAChR = format: cell-based, rat
[4] = test system: voltage-gated Ca2+ channel mediated Ca2+ influx; format: cell-based, rat; conditions: slice cultures
insulin receptor (IR) = experiment: IR activation and signaling (pY1150/1151 IRβ, IRS-1) in slice cultures; format: cell-based, rat; conditions: insulin stimulation
Procedure: IR activation and signaling was initiated by incubation of 6 slices that were further chopped horizontally into 100 μm (100 μm×200 μm×3 mm) with either KR (basal) or KR containing 1 nM insulin at 37° C. for 30 minutes. […] Ligand stimulation was terminated by the addition of 1 ml of ice-cold Ca^2+-free K-R containing mixture of protein phosphatase inhibitors, 0.5 mM EGTA and 0.1 mM EDTA. Brain slices were harvested by a brief centrifugation and were homogenized in 0.25 ml of ice-cold immunoprecipitation buffer. The homogenates were centrifuged at 1000×g for 5 minutes (4° C.) and the supernatant (post-mitochondrial fraction) was sonicated for 10 seconds on ice. […] The resultant lysates were then cleared by centrifugation at 50,000×g for 5 minutes and diluted with 0.75 ml of immunoprecipitation buffer. Protein concentrations were measured by Bradford method (Bio-Rad).
In these experiments, brain slice lysates (100 μg) were immunoprecipitated overnight (about 18 hours) at 4° C. with 2 μg of immobilized anti-IRβ onto covalently conjugated protein A-agarose beads (Pierce-ENDOGEN). […]

FLNA-α7nAChR association = experiment: FLNA association with α7nAChR in organotypic frontocortical slice cultures; format: cell-based, rat; conditions: 100 nM Aβ42, 16 hours, compound added simultaneously
Procedure: as §1, §2, §3

Compound: O=C1CNC2(CCNCC2)N1Cc1ccccc1 [Compound C0114]
- Inhibition of FITC-Aβ42 binding (α7nAChR (Aβ42 binding); 0.1 nM compound): 27.8±3.3%
- Inhibition of FITC-Aβ42 binding (α7nAChR (Aβ42 binding); 1 nM compound): 40.0±2.1%
- Inhibition of FITC-Aβ42 binding (α7nAChR (Aβ42 binding); 10 nM compound): 53.4±3.6%
- Aβ42-induced tau phosphorylation [1]: reduced tau phosphorylation at all three phosphorylation sites
- Aβ42-induced increase in FLNA-TLR4 association (FLNA-TLR4 association): reduced the FLNA-α7AchR association at both concentrations and the FLNA-TLR4 association at 10 nM
- Aβ42-induced impairment in NMDAR function (calcium influx after NMDA and glycine) (NMDAR [2]): significantly restoring NMDAR function
- Levels of six signaling molecules associated with NR1 after NMDA and glycine (NMDAR [3]): fully restored function
- Aβ42-induced impairment in α7nAChR function (calcium influx after PNU282987) (α7nAChR): restored functioning of this receptor
- Aβ42-induced reduction of K+-evoked calcium influx [4]: completely reversed
- Aβ42-induced IR signaling impairments (IRS-1 association, pY1150/1151 IRβ) (insulin receptor (IR)): normalized the signaling impairments
- Aβ42-induced increase in FLNA-α7nAChR association (FLNA-α7nAChR association): reduced the FLNA-α7AchR association at both concentrations
